Experimental data from US20250114331A1, “CONCURRENT TARGETING OF ONCOGENIC PATHWAYS TO ENHANCE CHEMOTHERAPY AND IMMUNOTHERAPY” (THE JOHNS HOPKINS UNIVERSITY, priority 2021, published 2025).
“Also recorded” adds a separate entry of the source. Read-outs that look alike come from different tables or passages of the source.

Tests used:
[1] = system: H1437 xenografts; assay: H1437 xenograft treatment; format: in vivo, NSG mice; conditions: verteporfin 50 mg/kg i.p. three times a week; S3I-201 5 mg/kg i.p. every day
From the text: For therapeutic experiments, 4- to 5-week-old NOD/SCID/IL2Ry−/− (NSG) mice were obtained from the Johns Hopkins Medical Institute's (Baltimore, MD) animal care facility. We injected H1299 cells (1×106) and H1437 cells (1×106), which were suspended in the mixture as described above, subcutaneously into both flanks. For the patient-derived xenograft (PDX) models, 13 PDX blocks (CTG0162, 0178, 0502, 0848, 1309, 1351, 1358, 1361, 1762, 1885, 2017, 2481, and 2708) were obtained from Champion Oncology. All these PDXs were established from primary lung adenocarcinoma tumors. The tumor tissues were cut into 4×2 mm pieces and implanted in the subcutaneous spaces of both flanks. When tumor volumes reached to 200+50 mm3, mice were randomly assigned to six experimental groups [control, chemo (cisplatin+gemcitabine), chemo+verteporfin, chemo+S3I-201, “all” (cisplatin+gemcitabine+verteporfin+S3I-201), and verteporfin+S3I-201] at 5 mice per group. Cisplatin (Sigma-Aldrich; #P4394), gemcitabine (Medkoo; #100410), S3I-201 (MedKoo; #202541), and verteporfin (Sigma-Aldrich; #1711461) were used to treat the mice. Cisplatin (2.5 mg/kg) and gemcitabine (120 mg/kg) were administrated via intraperitoneal injection once a week (22). […] Each tumor volume was measured every 3 days. Therapeutic efficacy was evaluated from percentage change of the tumor volume compared with the tumor size before treatment.

[2] = system: H1299 and H1437 cells; assay: Immunoblotting of YAP1, STAT3 and pSTAT3 after drug treatment; format: cell-based, human
Experimental: Western blotting. Cells were dissolved in RIPA buffer (Thermo Fisher Scientific) supplemented with proteinase inhibitor and phosphatase inhibitor cocktails (Roche, Mannheim, Germany). After total protein lysate was electrophoretically transferred onto PVDF membrane, the membrane was blocked with 5% skim milk in 0.05% TBS-Tween buffer and incubated at 4° C. overnight with a primary antibody specific to each protein. The membrane was then probed with an appropriate secondary antibody (Cell Signaling Technology, Danvers, USA). β-actin served as an endogenous control. The primary antibodies and dilution ratios were β-actin (Sigma-Aldrich; #A2228; 1:5000), NANOG (D73G4; Cell Signaling Technology; #4903; 1:1000), OCT4 (D705Z; Cell Signaling Technology; #75463; 1:500), SOX2 (EPR3131; Abcam, Cambridge, UK; #ab92494; 1:500), STAT3 (124H6; Cell Signaling Technology; #9139; 1:2000), pSTAT3 (D3A7; Cell Signaling Technology; #9145; 1:1000) and YAP1 (EP1674Y; Abcam, #ab52771; 1:2000).
To determine doses of these drugs that are effective for pathway inhibition, H1299 and H1437 cells were treated with verteporfin or S3I-201 for 72 hours.

[3] = system: H1299 and H1437 cells; assay: qRT-PCR of YAP1 and STAT3 pathway genes after drug treatment for 72 hours; format: cell-based, human
Experimental: qRT-PCR. The mRNA expression level of each gene was determined by qRT-PCR. […] We quantified the β-actin mRNA level to normalize the expression levels of the targeted genes. Each sample was tested in triplicate and run three times. Each graph shown in our figures indicates the average mRNA expression level of targeted genes compared with the β-actin expression level, with standard error of mean. To determine doses of these drugs that are effective for pathway inhibition, H1299 and H1437 cells were treated with verteporfin or S3I-201 for 72 hours.

[4] = molecular target: YAP1 (Homo sapiens, UniProt P46937); conditions: cited from earlier work
YAP1, sequence (P46937 whole entry, species assumed): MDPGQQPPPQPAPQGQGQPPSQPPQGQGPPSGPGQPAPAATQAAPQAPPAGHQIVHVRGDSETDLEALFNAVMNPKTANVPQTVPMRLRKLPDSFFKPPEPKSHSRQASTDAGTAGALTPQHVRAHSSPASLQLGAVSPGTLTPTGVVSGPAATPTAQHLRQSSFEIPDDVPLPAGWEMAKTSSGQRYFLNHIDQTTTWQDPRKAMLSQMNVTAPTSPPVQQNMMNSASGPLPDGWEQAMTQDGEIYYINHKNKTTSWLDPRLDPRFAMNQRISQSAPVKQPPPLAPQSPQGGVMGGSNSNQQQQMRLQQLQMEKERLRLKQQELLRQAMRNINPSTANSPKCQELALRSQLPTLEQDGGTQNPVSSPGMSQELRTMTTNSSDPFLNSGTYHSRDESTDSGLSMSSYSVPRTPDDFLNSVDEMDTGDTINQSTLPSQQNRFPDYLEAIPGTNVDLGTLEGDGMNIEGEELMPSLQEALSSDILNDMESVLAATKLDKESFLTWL

[5] = system: MB49, UPPL596 and BBN 975; assay: Cell derived xenografts treated with verteporfin; format: in vivo, C57BL/6 mice
Experimental: In vivo xenograft assay and treatment. For in vivo xenograft, cells were suspended in 100 μL of a 1:1 mixture of serum-free DMEM and Cultrex Stem Cell Qualified Reduced Growth Factor Basement Membrane Extract (Trevigen, Gaithersburg, USA), and then injected subcutaneously into the both flanks of C57BL/6 mice for MB49/UPPL595/BBN975 cells. For treatment, animals will be randomized to different treatment groups of 5 mice after growth of tumors to 100 mm3. The potential drugs are anti-PD-L1 monoclonal antibody (B7-H1, Bio X Cell, West Lebanon, USA) and verteporfin (NedKoo, Morrisville, USA). Verteporfin (50 mg/kg) will be administered via i.p. every other day. Anti-PD-L1 monoclonal antibody and the corresponding isotype antibody (200 μg/mouse) were administered via ip injection every 3 to 4 days. Treatment was performed for 14 days. To test the pharmacological inhibition of YAP1 on in vivo tumor growth in NSG and immune competent mice, CDXs were developed using three different mouse derived cancer cell lines (MB49, UPPL596 and BBN 975). Verteporfin was administered interperitoneally at a dose of 50 mg/kg body weight at every other day. […] Tumor mass values also indicate similar trend (FIG. 23C-23E; bottom).

SMILES: C=Cc1c(C)c2cc3nc(cc4[nH]c(cc5nc(cc1[nH]2)C(C)=C5CCC(=O)O)c(CCC(=O)OC)c4C)[C@@]1(C)C3=CC=C(C(=O)OC)[C@H]1C(=O)OC [verteporfin, 3-[(23S,24R)-14-ethenyl-5-(3-methoxy-3-oxopropyl)-22,23-bis(methoxycarbonyl)-4,10,15,24-tetramethyl-25,26,27,28-tetraazahexacyclo[16.6.1.13,6.18,11.113,16.019,24]octacosa-1,3,5,7,9,11(27),12,14,16,18(25),19,21-dodecaen-9-yl]propanoic acid]
- tumor growth [1]: did not significantly affect tumor growth
- STAT3 oligomerization (high molecular weight complexes) [2]: STAT3 oligomerization upon verteporfin treatment in a dose dependent manner; also recorded: high molecular weight complexes (regions surrounded by circles) were increased
- YAP1 and total STAT3 protein expression [2]: both YAP1 and total STAT3 expressions were suppressed
- YAP1 and total STAT3 protein expression ([2]; listed as Verteporfin): suppressed YAP1 and STAT3 expressions in H1299 and H1437 cells in a concentration dependent manner
- mRNA expression of YAP1 and downstream targets CTGF and CYR61 [3]: suppressed mRNA expressions of YAP1 and its downstream targets, such as CTGF and CYR61, in a dose-dependent manner
- mRNA expression of YAP1 and downstream targets CTGF and CYR61 ([3]; listed as Verteporfin): suppressed mRNA expression of YAP1, and its downstream targets, CTGF and CYR61, as the drug concentration was increased
- binding to YAP1 and YAP1-TEAD2 interaction [4]: bind to YAP1 and change its conformation, thereby abrogating its interaction with TEAD2
- tumor growth ([5]; 50 mg/kg body weight i.p. every other day, immune competent mice): significant regression in tumor growth
- CCN1 and CCN2 expression (YAP1 downstream genes) ([5]; RT-qPCR): downregulated
- YAP1 expression in the tumor tissue ([5]; pharmacodynamic analysis): decrease YAP1 expression
